Assay results: EP1000039B1 (Wyeth Holdings Corporation, priority 1997, dated 1999)
≈ marks a conversion by molar mass, not a printed value. Where two headings read alike, the source gives them in different places.

Tests used:
A2780DDP = experiment: Inhibition of Cancer Cell Growth (Sulforhodamine B); format: cell-based, Human; details: 48 hours exposure; for IC50: Homo sapiens, read-out: Inhibition of Cancer Cell Growth as Measured by Cell Number (IC50) A2780DDP
Experimental: (§1) After 48 hours exposure to test compounds, cells were fixed with trichloroacetic acid, and stained with Sulforhodamine B. After washing with trichloroacetic acid, bound dye was solubilized in 10 mM Tris base and optical density was determined using plate reader. Under conditions of the assay the optical density is proportional to the number of cells in the well. […] The test procedure is described in details by Philip Skehan et. al. J.Natl. Canc. […]

A2780S = experiment: as above; format: cell-based, Human; details: 48 hours exposure; for IC50: Homo sapiens, read-out: Inhibition of Cancer Cell Growth as Measured by Cell Number (IC50) A2780S
Experimental: as §1

A431 = experiment: as above; format: cell-based, Human; details: for Inhibition of Cancer Cell Growth as Measured by Cell Number (IC50) A431: 48 hours exposure; for IC50: Homo sapiens, A-431, 48 hours exposure, read-out: Inhibition of Cancer Cell Growth as Measured by Cell Number (IC50) A431
Experimental: as §1

LOX = experiment: as above; format: cell-based, Human; details: 48 hours exposure; for IC50: Homo sapiens, read-out: Inhibition of Cancer Cell Growth as Measured by Cell Number (IC50) LOX
Experimental: as §1

MB435 = experiment: as above; format: cell-based, Human; details: 48 hours exposure; for IC50: Homo sapiens, read-out: Inhibition of Cancer Cell Growth as Measured by Cell Number (IC50) MB435
Experimental: as §1

MCF7 = experiment: as above; format: cell-based, Human; details: 48 hours exposure; for IC50: Homo sapiens, read-out: Inhibition of Cancer Cell Growth as Measured by Cell Number (IC50) MCF7
Experimental: as §1

SKBR3 = experiment: as above; format: cell-based, Human; details: for Inhibition of Cancer Cell Growth as Measured by Cell Number (IC50) SKBR3: 48 hours exposure; for IC50: Homo sapiens, SK-BR-3, 48 hours exposure, read-out: Inhibition of Cancer Cell Growth as Measured by Cell Number (IC50) SKBR3
Experimental: as §1

SW620 = experiment: as above; format: cell-based, Human; details: for Inhibition of Cancer Cell Growth as Measured by Cell Number (IC50) SW620: 48 hours exposure; for IC50: Homo sapiens, SW-620, 48 hours exposure, read-out: Inhibition of Cancer Cell Growth as Measured by Cell Number (IC50) SW620
Experimental: as §1

[1] = biological target: T1, His-tagged cytoplasmic domain of EGFR (Homo sapiens, UniProt P00533); experiment: Inhibition of Epidermal Growth Factor Receptor Kinase (EGF-R) using recombinant enzyme, RR-SRC peptide phosphorylation; format: biochemical
T1 construct: containing the EGFR cDNA encoding amino acids 645 - 1186 preceded by Met-Ala-(His)6; Met-Ala-(His)6 (N); made in house; host or cells: Sf9 insect cells, recombinant baculovirus vHcEGFR52
T1 sequence (P00533 669-1210): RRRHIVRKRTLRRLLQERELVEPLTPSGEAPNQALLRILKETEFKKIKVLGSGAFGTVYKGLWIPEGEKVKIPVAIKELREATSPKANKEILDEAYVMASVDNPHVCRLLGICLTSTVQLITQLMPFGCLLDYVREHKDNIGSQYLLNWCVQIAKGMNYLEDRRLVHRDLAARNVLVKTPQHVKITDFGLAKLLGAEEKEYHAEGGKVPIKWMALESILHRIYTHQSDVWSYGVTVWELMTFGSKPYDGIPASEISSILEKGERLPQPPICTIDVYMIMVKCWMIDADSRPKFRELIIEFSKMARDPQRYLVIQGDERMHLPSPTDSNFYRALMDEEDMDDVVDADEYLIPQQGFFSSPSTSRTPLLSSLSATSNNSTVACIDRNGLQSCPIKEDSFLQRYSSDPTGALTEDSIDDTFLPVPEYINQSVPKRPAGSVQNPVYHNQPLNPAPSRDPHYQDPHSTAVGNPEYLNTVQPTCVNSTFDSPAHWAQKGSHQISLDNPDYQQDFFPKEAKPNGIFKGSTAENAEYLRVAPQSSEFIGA
Experimental: The enzyme used in this assay is the His-tagged cytoplasmic domain of EGFR. […] Sf9 cells in 100 mm plates were infected at an moi of 10 pfu/cell and cells were harvested 48 h post infection. A cytoplasmic extract was prepared using 1% Triton X-100 and applied to Ni-NTA column. After washing the column with 20 mM imidazole, HcEGFR was eluted with 250 mM imidazole (in 50 mM Na2HPO4, pH 8.0, 300 mM NaCl). Fractions collected were dialyzed against 10 mM HEPES, pH 7.0, 50 mM NaCl, 10% glycerol, 1ug/mL antipain and leupeptin and 0. 1 mM Pefabloc SC. The protein was frozen in dry ice/methanol and stored -70°C.
For the enzyme reaction, 10 uL of each inhibitor (at various concentrations) were added to each well of a 96-well plate. To this was added 3 uL of enzyme (1: 10 dilution in 10mM HEPES, pH 7.4 for final conc. of 1:120). This was allowed to sit for 10 min on ice and was followed by the addition of 5 ul peptide (80 uM final conc.), 10ul of 4X Buffer (Table A), 0.25 uL ^33P-ATP and 12 uL H2O. The reaction was allowed to run for 90 min at room temperature and was followed by spotting the entire volume on to precut P81 filter papers. The filter discs were washed 2X with 0.5% phosphoric acid and radioactivity was measured using a liquid scintillation counter.

[2] = recombinant enzyme, average of the number of tests, read-out: IC50

Compound	Inhibition of Cancer Cell Growth as Measured by Cell Number (IC50) A2780DDP (A2780DDP) [µg/mL]	Inhibition of Cancer Cell Growth as Measured by Cell Number (IC50) A2780S (A2780S) [µg/mL]	Inhibition of Cancer Cell Growth as Measured by Cell Number (IC50) A431 (A431) [µg/mL]	Inhibition of Cancer Cell Growth as Measured by Cell Number (IC50) LOX (LOX) [µg/mL]	Inhibition of Cancer Cell Growth as Measured by Cell Number (IC50) MB435 (MB435) [µg/mL]	Inhibition of Cancer Cell Growth as Measured by Cell Number (IC50) MCF7 (MCF7) [µg/mL]	Inhibition of Cancer Cell Growth as Measured by Cell Number (IC50) SKBR3 (SKBR3) [µg/mL]	Inhibition of Cancer Cell Growth as Measured by Cell Number (IC50) SW620 (SW620) [µg/mL]	IC50 [1, 2] [nM]	IC50 (A2780DDP) [µg/mL]	IC50 (A2780S) [µg/mL]	IC50 (A431) [µg/mL]	IC50 (LOX) [µg/mL]	IC50 (MB435) [µg/mL]	IC50 (MCF7) [µg/mL]	IC50 (SKBR3) [µg/mL]	IC50 (SW620) [µg/mL]	IC50 [1] [nM]
4-Diethylamino-but-2-enoic acid [4-(3-bromo-phenylamino)-quinazolin-6-yl]-amide [Example 67]	43	22	0.01	46	45	59	<0.01	52										
O=C(C#CCCl)Nc1ccc2ncnc(Nc3cccc(Br)c3)c2c1 [Example 12, 4-Chloro-but-2-ynoic acid [4-(3-bromo-phenylamino)-quinazolin-6-y]-amide]									5	0.07 (≈ 0.168 µM)	0.03 (≈ 0.0722 µM)	0.03 (≈ 0.0722 µM)	0.04 (≈ 0.0962 µM)	0.39 (≈ 0.938 µM)	0.49 (≈ 1.18 µM)	< 0.01	0.06 (≈ 0.144 µM)	
CC(C)(C)[Si](C)(C)OCC#CC(=O)Nc1ccc2ncnc(Nc3cccc(Br)c3)c2c1 [Example 15, 4-(tert-Butyl-dimethyl-silanyloxy)-but-2-ynoic acid [4-(3-bromo-phenylamino)quinazolin-6-yl]-amide]									6	0.05 (≈ 0.0978 µM)	0.02 (≈ 0.0391 µM)	0.04 (≈ 0.0782 µM)	0.03 (≈ 0.0587 µM)	0.42 (≈ 0.821 µM)	0.45 (≈ 0.88 µM)	0.38 (≈ 0.743 µM)	0.02 (≈ 0.0391 µM)	
COCCN(CC#CC(=O)Nc1ccc2ncnc(Nc3cccc(Br)c3)c2c1)CCOC [Example 31, 4-[Bis-(2-methoxy-methyl]-amino]-but-2-ynoic acid [4-(3-bromophenylamino)-quinazolin-6-yl]-amide]									2	0.6 (≈ 1.17 µM)	0.2 (≈ 0.39 µM)	0.01 (≈ 0.0195 µM)	0.5 (≈ 0.976 µM)	0.7 (≈ 1.37 µM)		< 0.01	0.4 (≈ 0.781 µM)	
CN1CCN(CC#CC(=O)Nc2ccc3ncnc(Nc4cccc(Br)c4)c3c2)CC1 [Example 34, 4-(4-Methyl-piperazin-1-yl]-but-2-ynoic acid [4-(3-bromophenylamino)-quinazolin-6-yl]-amide]									35									
COCCN(C)CC#CC(=O)Nc1ccc2ncnc(Nc3cccc(Br)c3)c2c1 [Example 37]									4.5									
O=C(/C=C/Cl)Nc1ccc2ncnc(Nc3cccc(Br)c3)c2c1 [Example 47, N-[4-[(3-Bromophenyl)amino]-6-quinazolinyl]-3(E)-chloro-2-propenamide]									0.3	0.197 (≈ 0.488 µM)	0.01 (≈ 0.0248 µM)	0.023 (≈ 0.057 µM)	0.0772 (≈ 0.191 µM)		1.17 (≈ 2.9 µM)	0.496 (≈ 1.23 µM)	0.39 (≈ 0.966 µM)	
O=c1c(Nc2ccc3ncnc(Nc4cccc(Br)c4)c3c2)c(N2CCOCC2)c1=O [Example 52, 3-[4-(3-Bromo-phenylamino)-quinazolin-6-ylamino]-4-morpholin-4-yl-cyclobut-3-ene-1,2-dione]										41.1 (≈ 85.7 µM)	27 (≈ 56.3 µM)	8.42 (≈ 17.5 µM)	7.6 (≈ 15.8 µM)	26.8 (≈ 55.8 µM)	53.1 (≈ 111 µM)	38 (≈ 79.1 µM)	> 100	
CN1CCC=C(C(=O)Nc2ccc3ncnc(Nc4cccc(Br)c4)c3c2)C1 [Example 53]										4.73 (≈ 10.8 µM)	2.89 (≈ 6.59 µM)	0.44 (≈ 1 µM)	5.62 (≈ 12.8 µM)	4.31 (≈ 9.83 µM)	5.09 (≈ 11.6 µM)			60
O=C(C=CCBr)Nc1ccc2ncnc(Nc3cccc(Br)c3)c2c1 [Example 65, 4-Bromo-but-2-enoic acid [4-(3-bromo-phenylamino)-quinazolin-6-yl]-amide]										6.5 (≈ 14.1 µM)	5.2 (≈ 11.3 µM)	3.2 (≈ 6.92 µM)	5.3 (≈ 11.5 µM)	13 (≈ 28.1 µM)	42 (≈ 90.9 µM)	0.3 (≈ 0.649 µM)	8.1 (≈ 17.5 µM)	
CN(C)CC=CC(=O)Nc1ccc2ncnc(Nc3cccc(Br)c3)c2c1 [Example 66, 4-Dimethylamino-but-2-enoic acid [4-(3-bromo-phenylamino)-quinazolin-6-yl]-amide]										5.1 (≈ 12 µM)	3.9 (≈ 9.15 µM)	0.007 (≈ 0.0164 µM)	4.9 (≈ 11.5 µM)	5.4 (≈ 12.7 µM)	7.6 (≈ 17.8 µM)	< 0.01	5.1 (≈ 12 µM)	
CSSC(C)C(=O)Nc1ccc2ncnc(Nc3cccc(Br)c3)c2c1 (centres unmarked) [Example 73, N-[4-(3-Bromo-phenylamino)-quinazolin-6-yl]-2-methyldisulfanyl-propionamide]										3 (≈ 6.68 µM)	1.77 (≈ 3.94 µM)	1.07 (≈ 2.38 µM)	3.1 (≈ 6.9 µM)		5.04 (≈ 11.2 µM)		3.65 (≈ 8.12 µM)	
O=C(Nc1ccc2ncnc(Nc3cccc(Br)c3)c2c1)C1CO1 (centres unmarked) [Example 81, Oxirane-2-carboxylic acid [4-(3-bromo-phenylamino)-quinazolin-6-yl]-amide]									0.7	0.311 (≈ 0.807 µM)	0.257 (≈ 0.667 µM)	0.34 (≈ 0.883 µM)	0.386 (≈ 1 µM)		1.03 (≈ 2.67 µM)	0.306 (≈ 0.794 µM)	0.584 (≈ 1.52 µM)	
C=CS(=O)(=O)Nc1ccc2ncnc(Nc3cccc(Br)c3)c2c1 [Example 82, Ethenesulfonic acid[4-(3-bromo-phenylamino)-quinazolin-6-yl]-amide]										0.112 (≈ 0.276 µM)	0.0626 (≈ 0.154 µM)	0.025 (≈ 0.0617 µM)	0.382 (≈ 0.943 µM)		0.81 (≈ 2 µM)	0.269 (≈ 0.664 µM)	0.53 (≈ 1.31 µM)	
N-[4-(3-Bromo-phenylamino)-quinazolin-6-yl]-2-morpholin-4-ylmethyl-acrylamide [Example 63]	4.0	0.8	0.6	3.9	4.5	17	<0.01	5.5										
